Data published in patent publication EP1373238B1, “ALKYLXANTHATES AND THEIR USE AS PESTICIDES” (priority 2001, dated 2002).
In brackets after ≈: the same amount, converted by molar mass. Read-outs that look alike come from different tables or passages of the source.

Assays:
Assay type in all cases: in vivo
[1] = test system: late third instar of Spodoptera litura; test: Antifeedant activity, painted leaf disks of Ricinus cummunis; set-up: key to A.I (Anti-feedent index): percent protection of treated vs untreated leaf disks; details: for Concentration required for 50% leaf protection EC50 ±S.E: oral feeding, leaf disk
Experimental: (§1) The average mortality and growth inhibition data of experiments was subjected to IBM AT 386 computer analysis at our laboratory for calculating LC50, LD50, EC50, ED50,etc., and other statistical data. The software used was developed by Reddy et al., 1992.
Methodology for Antifeedant activity: Tobacco caterpillar, Spodoptera litura F., larvae will be reared on Ricinus cummunis L. leaves at 27°C and 65-70% R.H. Known area (cm^2) of leaf disks were painted with exact amount of pure compound (dissolved in acetone) and were dried at room temperature till the carrier solvent evaporated. For each concentration 5 to 6 replicates were prepared and experiments were conducted individually. Control disks were dipped in carrier solvent (acetone) alone. Third instar larvae weighing 200-250 mg are selected from stock culture, starved for 4 hr, and will be used individually for the assay of antifeedant activity. After 12 and 24 hours, leaf area meter was used to measure the consumed area of treated and untreated leaves. Based on the data the percent protection of individual compound was calculated. All these properties were compared with well-known antifeedant isolated from neem kemal 'Azadiractin'. Control and test larvae arc transferred on fresh leaves and'monitored till adult emergence to study the growth and behavioral aspects of the insect.

[2] = test system: Helicoverpa armigera (Hubner); test: Growth regulatory (IGR) activity, topical application
[3] = test system: Brine shrimp, Artemia salina; test: Brine shrimp bioassay (toxic activity); details: read-out: LC50 ± S.E.
Experimental: Brine shrimp (Artemiasalina) eggs were hatched in a shallow rectangular dish filled with artificial seawater, which was prepared with commercial salt mixture and double distilled water. A plastic divider with several 2-mm holes was clamped in the dish to make two unequal compartments. The eggs were sprinkled into the larger compartment that was darkened, while the smaller compartment was illuminated. After 48 hours the phototropic nauplii were collected by pipette from the lighted side, being separated by the divider from their shells.
Twenty shrimps were transferred to each sample vial and artificial seawater was added to make 5 ml. The nauplii can becounted macroscopically in the stem of the pipette against a lighted back ground. A drop of dry yeast suspension (3µg in5ml artificial seawater) was added as food to each vial (Meyer, et al., 1982). Survivors were counted with the aid of a 3 x magnifying glass, after 24 hours, and the percent mortality at each concentration and control was determined. The 24 hour counts were more useful. During control deaths, the data was corrected using Abbot's formula.
as §1

[4] = test system: IV instar larvae of Aedes aegypti; test: Larvicidal activity against mosquito larvae (WHO procedure, 24 hours exposure); details: read-out: LC50 ± S.E.
Experimental: To determine the efficacy of different analogues of Alkylxanthates against mosquito larvae, standard procedures as recommended by World Health Organization (1981) were followed with minor modifications. The desired concentration of the test solution was obtained by adding 1 ml of an appropriate stock solution to 249 ml of tap water in 500 ml beaker. Test solutions of different concentrations were prepared by diluting the stock solution in dechlorinated and filtered tap water followed by thorough mixing. Tween -80 [Poly (oxyethylene)n - sorbitan monooleate] was used as an emulsifier at the concentration of 0.002% (v/v) to the final test solution whenever required. Control solutions were prepared in tapwater using acetone or ethanol and Tween -80 (0.002%). To each of the -test concentrations, 25 late third or early fourth instar larvae which were acclimatized earlier were added. At least three replicates of each of the tests were made. Based on the results, five to ten suitable concentrations, which produced 10 to 100% mortality, were selected for detailed study and for calculating LC50 values. Mortality was observed 24 hours after exposing the larvaeto test solutions and the data was corrected for control mortality if any, by using Abbot's formula (Abbot 1925). All tests were carried out at a room temperature maintained at 28 ± 1°C.
as §1

[5] = IV instar larvae, mortality after 24 hours

SMILES: C/C=C(\C)C(=O)O[C@H]1C[C@@H](OC(C)=O)[C@@]2(C(=O)OC)CO[C@H]3[C@@H](O)[C@@](C)([C@]45O[C@@]4(C)[C@H]4C[C@@H]5O[C@@H]5OC=C[C@@]54O)[C@H]4[C@]1(CO[C@]4(O)C(=O)OC)[C@@H]32 [Azadiractin, reference compound]
- A.I (Anti-feedent index) ([1]; 5.0 µg/sq.cm.): 24.84
- Percent leaf consumption 12 hr ([1]; 5.0 µg/sq.cm.): 33.7%
- Percent leaf consumption 24 hr ([1]; 5.0 µg/sq.cm.): 57.2%
- A.I (Anti-feedent index) ([1]; 10 µg/sq.cm.): 48.09
- Percent leaf consumption 12 hr ([1]; 10 µg/sq.cm.): 18.6%
- Percent leaf consumption 24 hr ([1]; 10 µg/sq.cm.): 33.3%
- A.I (Anti-feedent index) ([1]; 15 µg/sq.cm.): 54.98
- Percent leaf consumption 12 hr ([1]; 15 µg/sq.cm.): 16.4%
- Percent leaf consumption 24 hr ([1]; 15 µg/sq.cm.): 27.6%
- A.I (Anti-feedent index) ([1]; 20 µg/sq.cm.): 76.42
- Percent leaf consumption 12 hr ([1]; 20 µg/sq.cm.): 4.2%
- Percent leaf consumption 24 hr ([1]; 20 µg/sq.cm.): 12.7%
- Concentration required for 50% leaf protection EC50 ±S.E [1]: 6.34±.77 µg/cm^2
- IGR activity, mode of action [2]: less larvicidal activity, minimized in the formation of normal pupae and emergence of normal adults

SMILES: CC[C@@]1(O)C(=O)OCc2c1cc1n(c2=O)Cc2cc3ccccc3nc2-1 [Chamtothecin, reference compound]
- LC50 ([3]; 24 h): 2.53 ± 0.43 µg/mL (≈ 7.26 µM)

SMILES: S=C(OCC1CCCO1)SCSC(=S)OCC1CCCO1 (stereo not shown) [Compound 1, Methylene Bis(tetrahydrofurfurylxanthate)]
- LC50 ([4]; iv, 24 h): 3.77 ± 0.59 µg/mL (≈ 10.2 µM)
- LC50 ([3]; mortality after 24 hours): 5.63 ± 0.62 µg/mL (≈ 15.3 µM)
- A.I (Anti-feedent index) ([1]; 12.5 µg/sq.cm.): 8.20
- Percent leaf consumption 12 hr ([1]; 12.5 µg/sq.cm.): 48.6%
- Percent leaf consumption 24 hr ([1]; 12.5 µg/sq.cm.): 80.6%
- A.I (Anti-feedent index) ([1]; 25 µg/sq.cm.): 22.42
- Percent leaf consumption 12 hr ([1]; 25 µg/sq.cm.): 31.5%
- Percent leaf consumption 24 hr ([1]; 25 µg/sq.cm.): 60.2%
- A.I (Anti-feedent index) ([1]; 35 µg/sq.cm.): 33.52
- Percent leaf consumption 12 hr ([1]; 35 µg/sq.cm.): 25.9%
- Percent leaf consumption 24 hr ([1]; 35 µg/sq.cm.): 47.3%
- A.I (Anti-feedent index) ([1]; 50 µg/sq.cm.): 35.23
- Percent leaf consumption 12 hr ([1]; 50 µg/sq.cm.): 22.1%
- Percent leaf consumption 24 hr ([1]; 50 µg/sq.cm.): 45.5%
- Concentration required for 50% leaf protection EC50 ±S.E [1]: 37.21±9.67 µg/cm^2

SMILES: CCCCOC(=S)SCc1cccc(F)c1 [Compound 2, m-Fluorobenzyl (n-butylxanthate)]
- LC50 ([4]; iv, 24 h): 12.5 ± 1.24 µg/mL (≈ 48.5 µM)
- LC50 ([3]; mortality after 24 hours): 19 ± 2.83 µg/mL (≈ 73.5 µM)

SMILES: CC(C)COC(=S)SCc1cccc(F)c1 [Compound 3, m-Fluorobenzyl (isobutylxanthate)]
- LC50 ([4]; iv, 24 h): 11.8 ± 2.35 µg/mL (≈ 45.6 µM)
- LC50 ([3]; mortality after 24 hours): 22.5 ± 3.26 µg/mL (≈ 87.2 µM)
- A.I (Anti-feedent index) ([1]; 10 µg/sq.cm.): 11.63
- Percent leaf consumption 12 hr ([1]; 10 µg/sq.cm.): 50.4%
- Percent leaf consumption 24 hr ([1]; 10 µg/sq.cm.): 75.2%
- A.I (Anti-feedent index) ([1]; 15 µg/sq.cm.): 16.07
- Percent leaf consumption 12 hr ([1]; 15 µg/sq.cm.): 33.24%
- Percent leaf consumption 24 hr ([1]; 15 µg/sq.cm.): 68.7%
- A.I (Anti-feedent index) ([1]; 20 µg/sq.cm.): 27.86
- Percent leaf consumption 12 hr ([1]; 20 µg/sq.cm.): 24.7%
- Percent leaf consumption 24 hr ([1]; 20 µg/sq.cm.): 53.6%
- A.I (Anti-feedent index) ([1]; 25 µg/sq.cm.): 48.67
- Percent leaf consumption 12 hr ([1]; 25 µg/sq.cm.): 12.5%
- Percent leaf consumption 24 hr ([1]; 25 µg/sq.cm.): 32.8%
- Concentration required for 50% leaf protection EC50 ±S.E [1]: 19.65±2.99 µg/cm^2

SMILES: CC(C)COC(=S)SCCSC(=S)OCC(C)C [Compound 4, Ethylene Bis (isobutylxanthate)]
- LC50 [4, 5]: 8.06 ± 0.22 µg/mL (≈ 24.7 µM)
- LC50 ([3]; mortality after 24 hours): 25.8 ± 2.9 µg/mL (≈ 78.9 µM)

SMILES: CCCCOC(=S)SCSC(=S)OCCCC [Compound 5, Methylene Bis (n-butytxanthate)]
- LC50 [4, 5]: 5.33 ± 0.97 µg/mL (≈ 17.1 µM)
- LC50 ([3]; mortality after 24 hours): 34.6 ± 3.91 µg/mL (≈ 111 µM)
- A.I (Anti-feedent index) ([1]; 10 µg/sq.cm.): 5.50
- Percent leaf consumption 12 hr ([1]; 10 µg/sq.cm.): 48.5%
- Percent leaf consumption 24 hr ([1]; 10 µg/sq.cm.): 85.1%
- A.I (Anti-feedent index) ([1]; 15 µg/sq.cm.): 22.27
- Percent leaf consumption 12 hr ([1]; 15 µg/sq.cm.): 35.2%
- Percent leaf consumption 24 hr ([1]; 15 µg/sq.cm.): 60.4%
- A.I (Anti-feedent index) ([1]; 20 µg/sq.cm.): 35.14
- Percent leaf consumption 12 hr ([1]; 20 µg/sq.cm.): 22.5%
- Percent leaf consumption 24 hr ([1]; 20 µg/sq.cm.): 45.6%
- A.I (Anti-feedent index) ([1]; 25 µg/sq.cm.): 64.22
- Percent leaf consumption 12 hr ([1]; 25 µg/sq.cm.): 3.5%
- Percent leaf consumption 24 hr ([1]; 25 µg/sq.cm.): 20.7%
- A.I (Anti-feedent index) ([1]; 30 µg/sq.cm.): 85.37
- Percent leaf consumption 12 hr ([1]; 30 µg/sq.cm.): -0- %
- Percent leaf consumption 24 hr ([1]; 30 µg/sq.cm.): 7.5%
- Concentration required for 50% leaf protection EC50 ±S.E [1]: 17.11±1.36 µg/cm^2

SMILES: CCCCOC(=S)SCc1ccc(CSC(=S)OCCCC)cc1 [Compound 12, p-Xylene Bis (n-butylcanthate)]
- LC50 [4, 5]: 7.35 ± 0.51 µg/mL (≈ 18.3 µM)
- LC50 ([3]; mortality after 24 hours): 45.2 ± 5.63 µg/mL (≈ 112 µM)
- A.I (Anti-feedent index) ([1]; 10 µg/sq.cm.): 2.59
- Percent leaf consumption 12 hr ([1]; 10 µg/sq.cm.): 57.3%
- Percent leaf consumption 24 hr ([1]; 10 µg/sq.cm.): 90.2%
- A.I (Anti-feedent index) ([1]; 15 µg/sq.cm.): 5.97
- Percent leaf consumption 12 hr ([1]; 15 µg/sq.cm.): 62.4%
- Percent leaf consumption 24 hr ([1]; 15 µg/sq.cm.): 84.3%
- A.I (Anti-feedent index) ([1]; 20 µg/sq.cm.): 24.51
- Percent leaf consumption 12 hr ([1]; 20 µg/sq.cm.): 35.2%
- Percent leaf consumption 24 hr ([1]; 20 µg/sq.cm.): 57.6%
- A.I (Anti-feedent index) ([1]; 25 µg/sq.cm.): 58.86
- Percent leaf consumption 12 hr ([1]; 25 µg/sq.cm.): 20.5%
- Percent leaf consumption 24 hr ([1]; 25 µg/sq.cm.): 24.6%
- Concentration required for 50% leaf protection EC50 ±S.E [1]: 20.45±1.76 µg/cm^2
